Experiment: tolerated dose of octreotide
Details: in vivo
Method: Thus for octreotide, GI tumours may be treated initially with 0.05 mg once or twice a day by sub-cutaneous injection. Dosage can be increased to 0.2 mg three times daily. For acromegaly daily doses of from 100 to 300 μg s.c. may be used. Octreotide is tolerated at least to 1 mg.

## C[C@@H](O)[C@@H]1NC(=O)[C@H](CCCCN)NC(=O)[C@@H](Cc2c[nH]c3ccccc23)NC(=O)[C@H](Cc2ccccc2)NC(=O)[C@@H](NC(=O)[C@H](N)Cc2ccccc2)CSSC[C@@H](C(=O)N[C@H](CO)[C@@H](C)O)NC1=O [Octreotide, octreotide]
  tolerated dose: ≥ 1 mg

From patent US6066616A, “Somatostatin analogue composition and use in treating breast cancer” (Novartis AG, priority 1987, dated 2000)
